Experimental data as given in US12447156B2, “Treating progressive familial intrahepatic cholestasis (PFIC) with IBAT inhibitors” (ALBIREO AB, priority 2020, dated 2025).

Test system: children with PFIC1 or PFIC2
Test: PEDFIC 1: quality of life (PedsQL and PedsQL Family Impact Module)
Format: in vivo, human
Procedure: Study design and eligibility was as follows. In PEDFIC 1, patients were randomized 1:1:1 to receive oral, once-daily placebo, odevixibat 40 μg/kg/day, or odevixibat 120 μg/kg/day for 24 weeks; patients who completed 24 weeks of treatment could enroll in an open-label extension. Patients between the ages of 6 months and 18 years with a diagnosis of PFIC1 or PFIC2 were eligible for the study if they had elevated serum bile acid levels (defined as ≥100 μmol/L averaged from 2 samples taken prior to randomization, ≥7 days apart) and significant pruritus as reported by caregivers (average score ≥2 on a scale of 0-4 in the 2 weeks prior to randomization using an observer-reported outcome instrument).
A change from baseline to week 24 for the Pediatric QoL Inventory (PedsQL) questionnaire was assessed as an exploratory endpoint. Caregivers of patients ≥2 years old completed the PedsQL questionnaire, which assessed patient functioning in physical, emotional, social, and school domains; the output is a score between 0 and 100, where higher scores indicate better functioning and a higher change from baseline indicates an improvement in QoL, In addition, caregivers completed the PedsQL Family Impact Module, which assesses physical, emotional, social, and cognitive functioning as well as communication, worry, daily activities, and family relationship domains, also on a scale of 0 to 100. Total scores at baseline and at week 24 for all treatment groups as well as mean changes in scores from baseline to week 24 are presented for both odevixibat doses combined vs placebo; these are summarized descriptively.

[1] = PEDFIC 1, all doses, placebo 7.9
[2] = Week 24, 120 μg/kg/day (n = 15)

SMILES: CCCCC1(CCCC)CN(c2ccccc2)c2cc(SC)c(OCC(=O)N[C@@H](C(=O)N[C@@H](CC)C(=O)O)c3ccc(O)cc3)cc2S(=O)(=O)N1 [Odevixibat, 1,1-dioxo-3,3-dibutyl-5-phenyl-7-methylthio-8-(N-{(R)-α-[N-((S)-1-carboxypropyl)carbamoyl]-4-hydroxybenzyl}carbamoylmethoxy)-2,3,4,5-tetrahydro-1,2,5-benzothiadiazepine]
- PedsQL total score, mean change from baseline to week 24 (PEDFIC 1, all doses, placebo 0.5): 7.8
- PedsQL Family Impact Module Family relationships, mean change from baseline to week 24 (PEDFIC 1, all doses, placebo 2.1): 10.9
- PedsQL Family Impact Module Cognitive, mean change from baseline to week 24 (PEDFIC 1, all doses, placebo 3.2): 16.4
- PedsQL Family Impact Module Total score, mean change from baseline to week 24 (PEDFIC 1, all doses, placebo 5.6): 14.5
- PedsQL Family Impact Module Emotional, mean change from baseline to week 24 [1]: 13.4
- PedsQL Family Impact Module Worry, mean change from baseline to week 24 [1]: 12.8
- PedsQL Family Impact Module Physical, mean change from baseline to week 24 (PEDFIC 1, all doses, placebo 8.1): 18.9
- PedsQL Family Impact Module Social, mean change from baseline to week 24 (PEDFIC 1, all doses, placebo 8.5): 13.5
- PedsQL Family Impact Module Daily activities, mean change from baseline to week 24 (PEDFIC 1, all doses, placebo 9.3): 21.1
- PedsQL Emotional functioning, mean change from baseline to week 24 (PEDFIC 1, all doses, placebo 13.5): 14.1
- PedsQL Social functioning, mean change from baseline to week 24 (PEDFIC 1, all doses, placebo −1.0): 3.6
- PedsQL Family Impact Module Communication, mean change from baseline to week 24 (PEDFIC 1, all doses, placebo −4.4): 8.3
- PedsQL school functioning, mean change from baseline to week 24 (PEDFIC 1, all doses, placebo −5.3): 2.3
- PedsQL Physical functioning, mean change from baseline to week 24 (PEDFIC 1, all doses, placebo −5.9): 7.8
- PedsQL Family Impact Module Cognitive functioning, Mean (SE) (Week 24, 40 μg/kg/day (n = 19)): 65.3 (4.9)
- PedsQL Family Impact Module Communication, Mean (SE) (Week 24, 40 μg/kg/day (n = 19)): 57.0 (5.6)
- PedsQL Family Impact Module Daily activities, Mean (SE) (Week 24, 40 μg/kg/day (n = 19)): 50.9 (6.1)
- PedsQL Family Impact Module Emotional functioning, Mean (SE) (Week 24, 40 μg/kg/day (n = 19)): 55.8 (5.6)
- PedsQL Family Impact Module Family relationships, Mean (SE) (Week 24, 40 μg/kg/day (n = 19)): 68.7 (5.9)
- PedsQL Family Impact Module Physical functioning, Mean (SE) (Week 24, 40 μg/kg/day (n = 19)): 57.0 (5.7)
- PedsQL Family Impact Module Social functioning, Mean (SE) (Week 24, 40 μg/kg/day (n = 19)): 61.8 (6.4)
- PedsQL Family Impact Module Total score, Mean (SE) (Week 24, 40 μg/kg/day (n = 19)): 58.4 (4.7)
- PedsQL Family Impact Module Worry, Mean (SE) (Week 24, 40 μg/kg/day (n = 19)): 47.9 (5.3)
- PedsQL School functioning, Mean (SE) (Week 24, 40 μg/kg/day, n 9): 53.2 (5.2)
- PedsQL Emotional functioning, Mean (SE) (Week 24, 40 μg/kg/day, n 13): 54.6 (4.7)
- PedsQL Physical functioning, Mean (SE) (Week 24, 40 μg/kg/day, n 13): 56.3 (4.0)
- PedsQL Social functioning, Mean (SE) (Week 24, 40 μg/kg/day, n 13): 63.1 (6.4)
- PedsQL Total score, Mean (SE) (Week 24, 40 μg/kg/day, n 13): 56.8 (4.0)
- PedsQL Family Impact Module Cognitive functioning, Mean (SE) [2]: 67.7 (6.2)
- PedsQL Family Impact Module Communication, Mean (SE) [2]: 68.9 (5.6)
- PedsQL Family Impact Module Daily activities, Mean (SE) [2]: 54.4 (8.1)
- PedsQL Family Impact Module Emotional functioning, Mean (SE) [2]: 63.0 (5.9)
- PedsQL Family Impact Module Family relationships, Mean (SE) [2]: 72.7 (5.6)
- PedsQL Family Impact Module Physical functioning, Mean (SE) [2]: 63.3 (5.6)
- PedsQL Family Impact Module Social functioning, Mean (SE) [2]: 64.6 (7.6)
- PedsQL Family Impact Module Total score, Mean (SE) [2]: 63.5 (5.3)
- PedsQL Family Impact Module Worry, Mean (SE) [2]: 52.0 (5.8)
- PedsQL School functioning, Mean (SE) (Week 24, 120 μg/kg/day, n 10): 63.3 (7.6)
- PedsQL Emotional functioning, Mean (SE) (Week 24, 120 μg/kg/day, n 11): 59.6 (6.9)
- PedsQL Physical functioning, Mean (SE) (Week 24, 120 μg/kg/day, n 11): 56.8 (8.7)
- PedsQL Social functioning, Mean (SE) (Week 24, 120 μg/kg/day, n 11): 65.9 (8.6)
- PedsQL Total score, Mean (SE) (Week 24, 120 μg/kg/day, n 11): 60.7 (7.0)
- PedsQL Family Impact Module Cognitive functioning, Mean (SE) (Week 24, All Doses (n = 34)): 66.3 (3.8)
- PedsQL Family Impact Module Communication, Mean (SE) (Week 24, All Doses (n = 34)): 62.3 (4.1)
- PedsQL Family Impact Module Daily activities, Mean (SE) (Week 24, All Doses (n = 34)): 52.5 (4.9)
- PedsQL Family Impact Module Emotional functioning, Mean (SE) (Week 24, All Doses (n = 34)): 59.0 (4.1)
- PedsQL Family Impact Module Family relationships, Mean (SE) (Week 24, All Doses (n = 34)): 70.4 (4.1)
- PedsQL Family Impact Module Physical functioning, Mean (SE) (Week 24, All Doses (n = 34)): 59.8 (4.0)
- PedsQL Family Impact Module Social functioning, Mean (SE) (Week 24, All Doses (n = 34)): 63.1 (4.8)
- PedsQL Family Impact Module Total score, Mean (SE) (Week 24, All Doses (n = 34)): 60.6 (3.5)
- PedsQL Family Impact Module Worry, Mean (SE) (Week 24, All Doses (n = 34)): 49.7 (3.9)
- PedsQL School functioning, Mean (SE) (Week 24, All Doses, n 19): 58.5 (4.7)
- PedsQL Emotional functioning, Mean (SE) (Week 24, All Doses, n 24): 56.9 (4.0)
- PedsQL Physical functioning, Mean (SE) (Week 24, All Doses, n 24): 56.5 (4.4)
- PedsQL Social functioning, Mean (SE) (Week 24, All Doses, n 24): 64.4 (5.1)
- PedsQL Total score, Mean (SE) (Week 24, All Doses, n 24): 58.6 (3.8)
